In BindingDB's records for doi:10.1097/00004424-198809001-00017 (Unit&Eacute, 1988):
pKi: −log10 of the molar value.

Columns and labels:
[1] = target: Histamine H3 receptor (Cavia porcellus, UniProt Q9JI35)
[2] = target: Hrh3 protein (Rattus norvegicus, UniProt Q5PPG3)
Sequence of Hrh3 protein (Q5PPG3 whole entry): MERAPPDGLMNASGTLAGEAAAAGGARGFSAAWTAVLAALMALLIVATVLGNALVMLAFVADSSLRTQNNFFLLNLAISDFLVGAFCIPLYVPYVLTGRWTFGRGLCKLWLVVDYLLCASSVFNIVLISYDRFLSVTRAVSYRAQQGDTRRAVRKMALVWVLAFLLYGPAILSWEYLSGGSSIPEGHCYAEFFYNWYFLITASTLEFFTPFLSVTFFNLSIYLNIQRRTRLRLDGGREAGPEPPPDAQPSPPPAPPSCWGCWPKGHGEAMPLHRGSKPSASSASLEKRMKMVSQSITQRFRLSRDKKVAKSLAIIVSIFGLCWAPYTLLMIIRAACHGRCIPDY

Sequence of Histamine H3 receptor (Q9JI35 whole entry): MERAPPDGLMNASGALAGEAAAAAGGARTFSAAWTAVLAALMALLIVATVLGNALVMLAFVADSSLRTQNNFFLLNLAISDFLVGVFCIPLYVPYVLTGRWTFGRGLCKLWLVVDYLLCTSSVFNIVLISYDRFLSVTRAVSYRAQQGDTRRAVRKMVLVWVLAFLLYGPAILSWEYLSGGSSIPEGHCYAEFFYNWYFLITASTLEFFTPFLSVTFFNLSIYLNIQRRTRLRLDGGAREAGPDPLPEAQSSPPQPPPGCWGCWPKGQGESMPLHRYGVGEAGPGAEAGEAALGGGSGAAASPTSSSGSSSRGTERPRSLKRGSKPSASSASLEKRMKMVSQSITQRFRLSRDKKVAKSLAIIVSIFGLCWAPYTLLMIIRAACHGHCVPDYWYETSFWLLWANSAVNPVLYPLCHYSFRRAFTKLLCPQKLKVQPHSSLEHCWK

## C[C@@H](N)Cc1c[nH]cn1
[1]
  pKi: 6.09

## S=C(NC1CCCCC1)N1CCC(c2cnc[nH]2)CC1
[1]
  pKi: 8.70
[2]
  pKi: 8.68

## c1ncc(CCN2CCCC2)[nH]1 [4-[2-(1-Pyrrolidinyl)ethyl]-imidazole]
[1]
  pKi: 8.22

## C[C@H](N)Cc1c[nH]cn1 [CAS_75614-93-6]
[1]
  pKi: 7.28
[2]
  pKi: 7.96

## NCCc1c[nH]cn1 [[3H]histamine]
[1]
  pKi: 7.00
[2]
  pKi: 7.00
